Drawing on US20260274833A1 (NiKang Therapeutics, Inc., priority 2022, published 2026), this text covers IC50 for nine molecules.

Usually IC50 stands for the concentration that gives 50% inhibition.

For the assay, the target named is T1, CDK2 (Homo sapiens, UniProt P24941).
T1 construct: endogenous in cells; host or cells: OVCAR3 cells
The assay can be described thus: Phospho-RB measurement in OVCAR3 cells (HTRF phospho-RB cellular kit). As to conditions: inhibition of RB phosphorylation at S807/811 (HTRF, TR-FRET ratio 665/620), 24 h compound treatment, 0.3 to 10,000 nM. Format: cell-based. The method, then: Biological Example 1: Phospho-RB Measurement in OVCAR3 Cells
The ability of compounds of Formula (I) to inhibit CDK2 was determined in OVCAR3 cells by measuring inhibition of phosphorylation of RB protein at S780 and S807/811. Phosphorylation of RB protein at S807/811 were measured using HTRF phospho-RB cellular kits (Cat #64RBS807PEG) from Cisbio.
On Day 1, OVCAR3 cells were seeded into 96-well tissue-culture treated plates at 20,000 cells/well in 200 μL and incubated overnight at 37° C. in CO2 atmosphere. On Day 2, the cells were treated with test compounds at concentrations from 0.3 to 10,000 nM using HP D300 digital dispenser. Twenty-four hours after compound treatment, cell culture media was removed by flicking the plate and tapping the plate against clean paper towel. Immediately 30 μL 1× lysis buffer was supplemented from the kit and the plate was incubated at room temperature on shaker for 30 min. After homogenization by pipetting up and down, 8 μL cell lysate from 96-well cell culture plate was transferred to 384-well small volume white detection plate. 2 μL premixed detection solution was added and the plate was covered with sealer. To prepare the detection solution, d2 conjugated-phospho-RB antibody and Eu-cryptate conjugated phosphor-RB antibody were diluted into detection buffer following manufacturer's instruction.
Detection plates were incubated for 4 h at room temperature and read on ClarioStar (BMG Labtech) in TR-FRET mode ([…]). The TR-FRET ratio (665 nM/620 nM) was plotted against the compound concentration and normalized to DMSO controls. Half maximal inhibition concentration (IC50) values are calculated with a four-parameter logistic fit using GraphPad Prism (version 8; La Jolla, CA).
In general terms: Time-resolved FRET reads energy transfer from a long-lived donor to a nearby acceptor.
`CC(C)(C)c1nc(-c2cccc(NS(=O)(=O)N3CCC4(CCC4)C3)c2F)c(-c2ccnc(NC3CCN(S(C)(=O)=O)CC3)n2)s1` [Example 174, N-(3-(2-(tert-butyl)-5-(2-((1-(methylsulfonyl)-piperidin-4-yl)amino)-pyrimidin-4-yl)thiazol-4-yl)-2-fluoro-phenyl)-6-azaspiro [3.4]octane-6-sulfonamide]: the IC50 is 853 nM.
Take `CC1c2ccccc2CN1S(=O)(=O)Nc1cccc(-c2nc(C(C)(C)C)sc2-c2ccnc(NC3CCN(S(C)(=O)=O)CC3)n2)c1F` (stereo not drawn) [Example 109, N-(3-(2-(tert-butyl)-5-(2-((1-(methylsulfonyl)-piperidin-4-yl)amino)-pyrimidin-4-yl)thiazol-4-yl)-2-fluoro-phenyl)-1-methylisoindoline-2-sulfonamide]: the IC50 was determined as 210 nM.
With `CC(C)(C)c1nc(-c2cccc(NS(=O)(=O)N3Cc4ccccc4C3Cc3ccccc3)c2F)c(-c2ccnc(NC3CCN(S(C)(=O)=O)CC3)n2)s1` (stereo not drawn) [Example 213, 1-benzyl-N-(3-(2-(tert-butyl)-5-(2-((1-(methylsulfonyl)piperidin-4-yl)amino)-pyrimidin-4-yl)thiazol-4-yl)-2-fluoro-phenyl)-isoindoline-2-sulfonamide] the figure was 3300 nM; with `COc1cccc2c1CN(S(=O)(=O)Nc1cccc(-c3nc(C4(C)CCOCC4)sc3-c3ccnc(N[C@H]4[C@@H]5CS(=O)(=O)C[C@@H]54)n3)c1F)C2` [Example 7, N-(3-(5-(2-(((1R, 5S,6r)-3,3-dioxido-3-thiabicyclo[3.1.0]hexan-6-yl)amino)-pyrimidin-4-yl)-2-(4-methyltetrahydro-2H-pyran-4-yl)thiazol-4-yl)-2-fluorophenyl)-4-methoxyisoindoline-2-sulfonamide], 9.2 nM.
With `COc1cccc2c1CN(S(=O)(=O)Nc1cccc(-c3nc(C45CC(C4)C5)sc3-c3ccnc(NC4CC5(C4)CS(=O)(=O)C5)n3)c1F)C2` [Example 23, N-(3-(2-(bicyclo [1.1.1]pentan-1-yl)-5-(2-((2,2-dioxido-2-thiaspiro[3.3]heptan-6-yl)amino)-pyrimidin-4-yl)thiazol-4-yl)-2-fluorophenyl)-4-methoxyisoindoline-2-sulfonamide] the figure was 136 nM.
Then `CN(C1CNC1)S(=O)(=O)N1CCC(Nc2nccc(-c3sc(C(C)(C)C)nc3-c3cccc(NS(=O)(=O)N4Cc5ccccc5C4)c3F)n2)CC1` [Example 173, N-(3-(5-(2-((1-(N-(azetidin-3-yl)-N-methylsulfamoyl)piperidin-4-yl)amino)-pyrimidin-4-yl)-2-(tert-butyl)thiazol-4-yl)-2-fluorophenyl) isoindoline-2-sulfonamide], with 385 nM.
As to `CN(C)Cc1cccc2c1CCN2S(=O)(=O)Nc1cccc(-c2nc(C(C)(C)C)sc2-c2ccnc(NC3CCN(S(C)(=O)=O)CC3)n2)c1F` [Example 133, N-(3-(2-(tert-butyl)-5-(2-((1-(methylsulfonyl)-piperidin-4-yl)amino)-pyrimidin-4-yl)thiazol-4-yl)-2-fluoro-phenyl)-4-((dimethylamino)methyl)-indoline-1-sulfonamide], the IC50 is 331 nM.
With `CN(C)Cc1ccc2c(c1)CN(S(=O)(=O)Nc1cccc(-c3nc(C(C)(C)C)sc3-c3ccnc(NC4CCN(S(C)(=O)=O)CC4)n3)c1F)C2` [Example 171, N-(3-(2-(tert-butyl)-5-(2-((1-(methylsulfonyl)-piperidin-4-yl)amino)-pyrimidin-4-yl)thiazol-4-yl)-2-fluoro-phenyl)-5-((dimethylamino)methyl)-isoindoline-2-sulfonamide] the figure was 2120 nM; with `O=S1(=O)CC2(CC(Nc3nccc(-c4sc(N5C6CCC5CN(CC(F)(F)F)C6)nc4-c4cccc(NS(=O)(=O)N5Cc6cccc(C(F)(F)F)c6C5)c4F)n3)C2)C1` [Example 40, N-(3-(5-(2-((2,2-dioxido-2-thiaspiro-[3.3]-heptan-6-yl)amino)pyrimidin-4-yl)-2-(3-(2,2,2-trifluoroethyl)-3,8-diazabicyclo[3.2.1]-octan-8-yl)thiazol-4-yl)-2-fluorophenyl)-4-(trifluoromethyl)-isoindoline-2-sulfonamide], 192 nM.
